Assay results as given in publication PMC6155649 (Molecules : A Journal of Synthetic Chemistry and Natural …, 2017).
Read-outs that look alike come from different tables or passages of the source. Marks after values point to notes of the source that are not given here.

Assays:
Fe^III-heme = settings: read-out: KD of the 1:1 π-π complex with Fe^III-heme; pH 7.5; cited from earlier work
[1] = test system: human lung MRC-5 fibroblasts; set-up: method as in PMID 21682307; settings: human MRC-5 fibroblasts, previously reported values; cited from earlier work
P. falciparum Dd2 [2] = assay: SYBRgreen growth inhibition assay; format: cell-based; settings: read-out: IC50 (nM) ± SD (n)
Method: (§1) The protocols are described in the experimental section. Two protocols to measure the growth inhibition were used: the tritiated hypoxanthine incorporation method and the SYBRgreen method. This was due to the fact that the radioactive assay was abandoned in the laboratory due to cost issues related to radioactive waste disposal. […] All data are mean values from one to four independent experiments, each consisting of eight drug concentrations in duplicate.
Parasite replication was assessed by fluorescent SYBRgreen staining of parasitic DNA [60] as previously described. IC50 values were calculated using SigmaPlot.

P. falciparum Dd2 [3] = test system: P. falciparum Dd2; set-up: method as in PMID 21682307; settings: P. falciparum Dd2, tritiated hypoxanthine incorporation method, previously reported values; cited from earlier work
P. berghei (ANKA-strain) = assay: in vivo antimalarial activity in P. berghei ANKA-infected Swiss mice; set-up: species or system Plasmodium berghei; settings: for % Parasitaemia (dpi) 4 / % Suppression (dpi) 4: day 4 post infection; for % Parasitaemia (dpi) 7 / % Suppression (dpi) 7: day 7 post infection; for % Parasitaemia (dpi) 11 / % Suppression (dpi) 11: day 11 post infection
Method: Swiss mice (female—BW ~ 25 g; Janvier France, Le Genest Saint Isle, France) were allocated randomly to five groups of four animals each. Drinking water and food were available ad libitum throughout the experiment.
P. berghei (ANKA-strain) is maintained in the laboratory by weekly mechanical subpassage in Swiss mice. The infection inoculum was prepared by taking heparinized blood was collected from a clinically ill donor mouse (approximately 20% parasitaemia) and diluted in PBS to obtain an infection inoculum of 0.15 mL with about 4 × 10^8 infected erythrocytes. The infection-inoculum was given intraperitoneally. The untreated infected controls developed severe malaria with most animals showing severe clinical signs on day 4. […]. […]

[4] = absorption spectrophotometric titrations versus pH (pKa); settings: for [LH+]pH5/[LH+]pH7.4: ratio of protonated species at pH 5 and 7.4, I = 0.1 M NaClO4, T = 25 °C; for pH of precipitation during the titration: H2O/DMSO, 91/1 v/v as printed, pKa could not be accurately evaluated
Excerpt: The HClO4 and NaOH solutions were freshly prepared just before use and titrated with sodium tetraborate decahydrate (B4Na2O7·10H2O, puriss, p.a, Fluka) and potassium hydrogen phthalate (C8H5KO3, Fluka, puriss, p.a.), respectively, using methyl orange (RAL) and phenolphthalein (Prolabo, purum) as the indicators. The GLEE program was applied for the glass electrode calibration (standard electrode potential E0/mV and slope of the electrode/mV pH^−1) and to check carbonate levels of the NaOH solutions used (<5%). The cell was thermostated at 25.0 ± 0.2 °C by the flow of a Lauda E200 thermostat. A stream of argon, pre-saturated with water vapour, was passed over the surface of the solution.
The spectrophotometric data were analyzed with the Specfit program which adjusts the absorptivities and the stability constants of the species formed at equilibrium. Specfit uses factor analysis to reduce the absorbance matrix and to extract the eigenvalues prior to the multiwavelength fit of the reduced data set according to the Marquardt algorithm.

[5] = test system: human lung MRC-5 fibroblasts; assay: cytotoxicity, Alamar Blue (resazurin) assay; settings: human MRC-5 fibroblasts, 3 days incubation
Method: All compounds were tested for cytotoxicity on human lung MRC-5 fibroblasts using the Alamar Blue assay (Table 1 and Table 2).
MRC-5SV2 cells are cultured in Earls MEM +5% FCSi. […] After 3 days incubation, cell viability is assessed fluorimetrically after addition of resazurin and fluorescence is measured (λex 550 nm, λem 590 nm). The results are expressed as % reduction in cell growth/viability compared to untreated control wells and CC50 is determined.

[6] = in 0.4 M KCl; cited from earlier work
P. falciparum Dd2 [7] = assay: tritiated hypoxanthine incorporation growth inhibition assay; format: cell-based; settings: for IC50: mean value
Method: as §1
The IC50 values were determined using standard in vitro proliferation assays. […] The amount of radioactivity in precipitable material served as an index of parasite proliferation.

[8] = observation of precipitation in DMSO; format: physicochemical; settings: table footnote *
P. berghei strain ANKA = test system: P. berghei strain ANKA; set-up: method as in PMID 21682307; settings: P. berghei strain ANKA-infected CD1 mice, day 4; cited from earlier work
[9] = Plasmodium falciparum, DD2, 72 h
[10] = 10 mg/kg ip for 5 days, Swiss mice
[11] = 10 mg/kg ip for 5 days, Swiss mice, day 14 post infection
[12] = 10 mg/kg ip for 5 days, infected Swiss mice
[13] = Plasmodium falciparum, P. falciparum Dd2, SYBRgreen method, 72 h
[14] = 0.1 M NaClO4 in water/DMSO (91:9 v/v)
[15] = P. falciparum Dd2, SYBRgreen method, 72 h
[16] = P. falciparum Dd2, tritiated hypoxanthine incorporation method
[17] = Plasmodium falciparum, DD2, P. falciparum Dd2, tritiated hypoxanthine incorporation method
[18] = 50 mg/kg ip for 5 days, Swiss mice

CCN(CC)CCCC(C)Nc1ccnc2cc(Cl)ccc12 (centres unmarked) [Chloroquine, chloroquine]
Kd (Fe^III-heme): 2 to 15 µM | Tox/MRC-5 [1]: 51.5 µM | IC50 (P. falciparum Dd2 [2]; [9]): 99 ± 19 nM | IC50 (P. falciparum Dd2 [3]): 110 ± 20 nM | % Parasitaemia (dpi) 4 (P. berghei (ANKA-strain); [10]): 5.2% | % Suppression (dpi) 4 (P. berghei (ANKA-strain); [10]): 86.3% | % Parasitaemia (dpi) 7 (P. berghei (ANKA-strain); [10]): 9.8% | % Suppression (dpi) 7 (P. berghei (ANKA-strain); [10]): 76.8% | % Parasitaemia (dpi) 11 (P. berghei (ANKA-strain); [10]): 32.1% | % Suppression (dpi) 11 (P. berghei (ANKA-strain); [10]): 52.7% | % Parasitaemia (dpi) 14 (P. berghei (ANKA-strain); [11]): 56.2% | % Suppression (dpi) 14 (P. berghei (ANKA-strain); [11]): 9.2% | Health Status (P. berghei (ANKA-strain); [12]): From day 4 p.i. onwards: poor appearance, tremor, body weight loss, rough hair, one animal died before day 14 p.i. | survival until day 7 (P. berghei (ANKA-strain); [12]): 100%

CCN(CC)c1ccc(CC2=C(C)C(=O)c3ccccc3C2=O)cc1 [Compound 11, 2-(4-(Diethylamino)benzyl)-3-methylnaphthalene-1,4-dione]
IC50 (P. falciparum Dd2 [2]; [13]): 2060 ± 1070 nM | pKa [4, 14]: 5.07 ± 0.06 | [LH+]pH5/[LH+]pH7.4 ([4]; Water/DMSO (0.91/0.09 v/v)): 112.0 | Tox/MRC-5 [5]: 29.3 µM

CC(=O)Nc1ccc(CC2=C(C)C(=O)c3ccccc3C2=O)cc1 [Compound 9, N-(4-((3-Methyl-1,4-dioxo-1,4-dihydronaphthalen-2-yl)methyl)phenyl)acetamide]
IC50 (P. falciparum Dd2 [2]; [9]): 411 ± 220 nM

CCN(CC)c1cccc(CC2=C(C)C(=O)c3ccccc3C2=O)c1 [Compound 19, 2-(3-(Diethylamino)benzyl)-3-methylnaphthalene-1,4-dione]
IC50 (P. falciparum Dd2 [2]; [13]): 236 ± 97 nM | pKa [4, 14]: 5 to 5.5 | pH of precipitation during the titration [4]: ~ 5 | Tox/MRC-5 [5]: >64.0 µM

OCCN(CCO)c1ccccc1 [N-phenyldiethanolamine]
pKa [6]: 4.13

2-Methyl-3-(3-bromo-benzyl)-4a,8a-dihydro-[1,4]naphthoquinone [Compound 25b]
IC50 (P. falciparum Dd2 [2]; [15]): 128 nM | Tox/MRC-5 [5]: 20.8 µM

CC(=O)Nc1ccccc1CC1=C(C)C(=O)c2ccccc2C1=O [Compound 22, N-(2-((3-Methyl-1,4-dioxo-1,4-dihydronaphthalen-2-yl)methyl)phenyl)acetamide]
IC50 (P. falciparum Dd2 [2]; [13]): 282 ± 86 nM | melting point: 218 to 220 °C | Tox/MRC-5 [5]: 4.4 µM

CC1=C(Cc2ccc(NC(=O)OC(C)(C)C)cc2)C(=O)c2ccccc2C1=O [Compound 6, tert-Butyl(4-((3-Methyl-1,4-dioxo-1,4-dihydronaphthalen-2-yl)methyl)phenyl) carbamate]
IC50 (P. falciparum Dd2 [2]; [13]): 109 ± 46 nM | IC50 (P. falciparum Dd2 [7]; [16]): 42.5 nM | IC50 (P. falciparum Dd2 [7]; [17]): 42 nM | Tox/MRC-5 [5]: >64.0 µM | % Parasitaemia (dpi) 4 (P. berghei (ANKA-strain); [18]): 9.4% | % Suppression (dpi) 4 (P. berghei (ANKA-strain); [18]): 75.5% | % Parasitaemia (dpi) 7 (P. berghei (ANKA-strain); [18]): 7.7% | % Suppression (dpi) 7 (P. berghei (ANKA-strain); [18]): 81.8% | % Parasitaemia (dpi) 11 (P. berghei (ANKA-strain); [18]): 41.9% | % Suppression (dpi) 11 (P. berghei (ANKA-strain); [18]): 38.1% | % Parasitaemia (dpi) 14 (P. berghei (ANKA-strain); 50 mg/kg ip for 5 days, Swiss mice, day 14 post infection): 69.3% | Health Status (P. berghei (ANKA-strain); 50 mg/kg ip for 5 days, infected Swiss mice): From day 4 p.i. onwards: poor appearance (intermittent), one animal died before day 14 p.i.

para-N-ethyl-3-benzylmenadione [Compound 10]
IC50 (P. falciparum Dd2 [2]; [15]): 418 ± 166 nM | pKa ± σ [4]: 5–5.5 | pH of precipitation during the titration [4]: ~ 5 | Tox/MRC-5 [5]: >64.0 µM

CC1=C(Cc2ccc(-c3ccc(C(C)(C)C)cc3)cc2)C(=O)c2ccccc2C1=O [Compound 27, 2-(4′-tert-Butyl-biphenyl-4-ylmethyl)-3-methyl-[1,4]naphthoquinone]
melting point: 112 to 114 °C | IC50 (P. falciparum Dd2 [7]; [17]): 485 nM | Tox/MRC-5 [5]: >64.0 µM

CC1=C(Cc2cccc(N)c2)C(=O)c2ccccc2C1=O [Compound 17, 2-(3-Aminobenzyl)-3-methylnaphthalene-1,4-dione]
IC50 (P. falciparum Dd2 [2]; [13]): 1200 ± 1650 nM | behaviour in DMSO [8]: Precipitates in DMSO | [LH+]pH5/[LH+]pH7.4 ([4]; Water): 209.6 | pKa ([4]; water with 0.1 M NaClO4): 4.3 ± 0.02 | Tox/MRC-5 [5]: >64.0 µM

CC1=C(Cc2ccc(N)cc2)C(=O)c2ccccc2C1=O [Compound 7, 2-(4-Aminobenzyl)-3-methylnaphthalene-1,4-dione]
IC50 (P. falciparum Dd2 [2]; [13]): 303 ± 138 nM | [LH+]pH5/[LH+]pH7.4 ([4]; Water): 162.5 | pKa ([4]; water with 0.1 M NaClO4): 4.74 ± 0.05 | Tox/MRC-5 [5]: >64.0 µM

2-Methyl-3-(2-bromo-benzyl)-4a,8a-dihydro-[1,4]naphthoquinone [Compound 25a]
IC50 (P. falciparum Dd2 [2]; [15]): 86.3 nM | Tox/MRC-5 [5]: >64.0 µM

CC1=C(Cc2cccc(N(C)C)c2)C(=O)c2ccccc2C1=O [Compound 18, 2-(3-(Dimethylamino)benzyl)-3-methylnaphthalene-1,4-dione]
IC50 (P. falciparum Dd2 [2]; [13]): 386 ± 151 nM | pKa [4, 14]: 4.6 ± 0.04 | [LH+]pH5/[LH+]pH7.4 ([4]; Water/DMSO (0.91/0.09 v/v)): 179.9 | Tox/MRC-5 [5]: >64.0 µM

CC(=O)Nc1cccc(CC2=C(C)C(=O)c3ccccc3C2=O)c1 [Compound 16, N-(3-((3-Methyl-1,4-dioxo-1,4-dihydronaphthalen-2-yl)methyl)phenyl)acetamide]
IC50 (P. falciparum Dd2 [2]; [9]): 310 ± 134 nM

CC1=C(Cc2ccc(-c3ccc(N(C)C)cc3)cc2)C(=O)c2ccccc2C1=O [Compound 26, 2-(4′-Dimethylamino-biphenyl-4-ylmethyl)-3-methyl-[1,4]naphthoquinone]
melting point: 170 to 171 °C | fold higher IC50 value than plasmodione (P. falciparum Dd2 [7]; P. falciparum Dd2, hypoxanthine incorporation test): 10 fold | IC50 (P. falciparum Dd2 [7]; [16]): 223 nM | IC50 (P. falciparum Dd2 [7]; [17]): 229 nM | Tox/MRC-5 [5]: >64.0 µM

2-Methyl-3-(4-bromo-benzyl)-4a,8a-dihydro-[1,4]naphthoquinone [Compound 25c]
Tox/MRC-5 [1]: >32.0 µM | Tox/MRC-5 (µM) [1]: >32.0 ^b µM | IC50 (P. falciparum Dd2 [2]; [15]): 82 ± 2 nM | IC50 (P. falciparum Dd2 [3]): 46 ± 4 nM | reduction of parasitemia (P. berghei strain ANKA): 35.8%

2-(4′-nitro-Butyl-biphenyl-4-ylmethyl)-3-methyl-[1,4]naphthoquinone [Compound 28]
IC50 (P. falciparum Dd2 [7]; [16]): 474 nM | Tox/MRC-5 [5]: >64.0 µM

CC1=C(Cc2ccc(N(C)C)cc2)C(=O)c2ccccc2C1=O [Compound 3, 2-(4-(Dimethylamino)benzyl)-3-methylnaphthalene-1,4-dione]
IC50 (P. falciparum Dd2 [2]; [13]): 567 ± 217 nM | pKa [4, 14]: 4.87 ± 0.03 | [LH+]pH5/[LH+]pH7.4 ([4]; Water/DMSO (0.91/0.09 v/v)): 144.7 | Tox/MRC-5 [5]: >64.0 µM
